# According to patent US20030216471A1, “Retinoid formulations for aerosolization and inhalation” (priority 2003, published 2003):
# “Also recorded” adds a separate entry of the source.
# Legend:
# TGase II = TGase II activity in cultured human breast cancer MCF-7 cells; assay type: cell-based
# Experimental: Cells were harvested and Transglutaminase II activity was measured as described below. Nebulizer solution, inhalation procedures, details of animal housing are described below.
# Cultured cells were placed in 100 μl scraping buffer [A: 2800 μl (400 μl 0.5M Na-Phosphate, 500 μl 0.01M EDTA, 100 μl 1M DTT, 9 ml PBS total 10 ml)+B:700 μl (10 μl 20 mg/ml PMSF 790 μl PBS total 800 μl)] for each dish. Cells were broken by a sonicator and kept in ice until used. TGase II assay was conducted as described below and previously {8217}.
# Enzyme assay mixtures were prepared by adding 80 μl of SUBSTRATE mixture (322.8 μl H2O, 120 μl 0.5M NaBorate, 60 μl 0.01M EDTA, 60 μl 0.1M CaCl2, 6 μl 1M DTT, 240 μl dimethyl casein, 30 μl Triton X-100, 1.21 μl [^3H]-Putrescine, 120 μl Putrescine) to 20 μl sample, 20 μl scraping buffer for blank control, 20 μl (18 μl scraping buffer+2 μl TGase II) for positive control. Samples were mixed in 15 ml tubes, the tubes were shaken before putting them into a 28° C. water bath for 30 minutes. Reactions were slowed down in an ice bath. 80 μl of the incubation mixture was adsorbed onto paper disks. These were immediately dropped into cold 10% TCA (0.1% Putrescine) and washed with agitation for 7 minutes, followed by 2 additional washes with 5% TCA (0.05% putrescine) for 5-7 minutes, and once more with cold (−20° C.) 95% ethanol for 5 minutes. Paper disks were dried and placed into 5 ml Aquasol, and counted in a Liquid Scintillation Counter. Protein concentration determination was conducted by the Bradford method.
# RARα [1] = assay: Western blot of SENCAR mouse liver, dietary RA 75 weeks, RAR α; assay type: in vivo; conditions: for RARα densitometry of Western blots: liver
# Experimental: (§1) Tissues were collected, frozen in dry ice and kept at −70° C. until used. 500 mg aliquots were diced in small pieces and homogenized in 300 μl of cold PBS, using the hand held homogenizer for 2˜3 minutes. Sample and washes were centrifuged at 5000×g for 20 minutes. The pellet was suspended in 400 μl of ice-cold Buffer A [2 μl 0.5M EDTA, 10 μl 100 mM EGTA, 50 μl 100MM PMSF, 10 μl 1M DTT, 10 ml (10 mM HEPES pH 7.9+10 mM KCl)], and left at ice temperature for 15 minutes. 25 μl of 10% solution of NP-40 was added and samples were mixed in a vortex vigorously for 10 seconds. Samples were centrifuged at 14,000×g for 1 minute at 4° C. and the pellet treated once more in this fashion (resuspended etc.). The supernatant was removed and 100 μl of ice-cold Buffer C [4 μl 0.5M EDTA, 20 μl 100 mM EGTA, 20 μl 100 mM PMSF, 2 μl 1M DTT, 2 ml (20 mM HEPES pH 7.9+0.4M NaCl)] was added. Pellets were resuspended by tapping gently on the bottom of the Eppendorf tubes. Samples were rocked vigorously in a bucket of ice on an orbital shaker for 30 minutes. Samples were centrifuged at 14,000×g for 5 minutes at 4° C.
# (§2) Samples were prepared by adding one part of the Sample Buffer to one part of the sample and mixing well. Samples were heated at 95° C. for 5 minutes to induce denaturation. 5 μl of Rainbow Standard and 5 μl of Biotinylated Molecular Marker were added to parallel wells. 20 μg protein per sample was loaded in each lane. Electrophoresis was performed with voltage set at 125V for about 1˜1.5 hours. Gel transfer was executed at 25V for 2 hours. The membrane was stained in Ponceau S. for 5 minutes and destained with one wash of 5% acetic acid. The membrane was then washed in TBS solution until the staining disappeared. Membranes were incubated in 1 ml blocking solution and 9 ml TBS for 60 minutes. Membranes were incubated in 1 ml of blocking solution and 19 ml TBS along with 20 μl primary antibody solution overnight (dilution of 1:1000). Membranes were washed in PBS-Tween 20, 3 times for 10 minutes each. […]
# RARβ = assay: Western blot of SENCAR mouse liver, dietary RA 75 weeks, RAR β; assay type: in vivo; conditions: for RARβ densitometry of Western blots: liver
# Experimental: as §1, §2
# RARγ = assay: Western blot of SENCAR mouse liver, dietary RA 75 weeks, RAR γ; assay type: in vivo; conditions: for RARγ densitometry of Western blots: liver
# Experimental: as §1, §2
# RARα [2] = assay: Immunohistochemical analysis of SENCAR mouse liver, dietary RA; assay type: in vivo; conditions: pharmacological RA diet compared to physiological RA, 75 weeks
# Experimental: Liver tissue (approximately 300 mg) was fixed in 10% formalin, embedded in paraffin and 5 μm sections were used for immunohistochemistry. Staining for RAR was similar to our previously described protocol {8656}. ABC kit Mouse/Rabbit IgG and DAB Substrate kit were used (Vector Laboratories Inc., 30 Ingold Road Burlingame, Calif.).
# RAR α = assay: Time course of dietary RA effect on SENCAR mouse liver RAR α; assay type: in vivo; conditions: pharmacological dietary RA over physiological RA, day 1
# Experimental: (§3) SENCAR mice (30) were divided into six experimental groups.
# as §1
# (§4) Samples were prepared by adding one part of the Sample Buffer to one part of the sample and mixing well. Samples were heated at 95° C. for 5 minutes to induce denaturation. […]
# RAR β = assay: Time course of dietary RA effect on SENCAR mouse liver RAR β; assay type: in vivo; conditions: pharmacological dietary RA over physiological RA, day 1
# Experimental: as §3, §1, §4
# RAR γ = assay: Time course of dietary RA effect on SENCAR mouse liver RAR γ; assay type: in vivo; conditions: pharmacological dietary RA over physiological RA, day 1
# Experimental: as §3, §1, §4
# lung tissue RARs = assay: SENCAR mouse lung tissue RARs, dietary RA; assay type: in vivo
# Experimental: as §3, §1, §4
# [3] = dietary RA 30 μg/g vs 3 μg/g diet, male SENCAR mice
smiles,measurement,setting,value
"CC1=C(/C=C/C(C)=C/C=C/C(C)=C/C(=O)O)C(C)(C)CCC1 [RA, all-trans-retinoic acid]",TGase II Activity,"TGase II; MCF-7 cells treated at 10^−6 M for 72 hours, DMSO control 0.183",1.359+/−0.098 picomoles/μg protein/30 minutes
same,stimulating TGase II activity,"TGase II; MCF-7 cells, 10^−6 M, 72 hours, over DMSO",7.4 Fold
same,"upregulation of liver RAR (first named, α)",RARα [1]; [3],21.8 fold
same,RARα densitometry of Western blots,RARα [1]; RA diet 3 μg/g,12.1+/−7.2 IDV
same,RARα densitometry of Western blots,RARα [1]; RA diet 30 μg/g,264+/−21.3 IDV
same,"upregulation of liver RAR (second named, β)",RARβ; [3],13.5 fold
same,RARβ densitometry of Western blots,RARβ; RA diet 3 μg/g,18.9+/−7.4 IDV
same,RARβ densitometry of Western blots,RARβ; RA diet 30 μg/g,254+/−31.9 IDV
same,"upregulation of liver RAR (third named, γ)",RARγ; [3],12.5 fold
same,RARγ densitometry of Western blots,RARγ; RA diet 3 μg/g,23.1+/−6.7 IDV
same,RARγ densitometry of Western blots,RARγ; RA diet 30 μg/g,288+/−17.4 IDV
same,RARα immunohistochemical staining in liver nuclei,RARα [2],striking increase of RAR expression; also recorded: marked increase in staining
same,"stimulation of liver RAR (first named, α)",RAR α,2 fold
same,"stimulation of liver RAR (second named, β)",RAR β,4 fold
same,"stimulation of liver RAR (third named, γ)",RAR γ,2.1 fold
same,effect of dietary RA on lung tissue RARs,"lung tissue RARs; long term feeding of 30 μg/g diet, SENCAR mouse",failed to induce
same,effect of dietary RA on lung tissue RARs,"lung tissue RARs; time course, 1 to 28 days, 30 μg/g diet, not shown",without any measurable effect; also recorded: no effect
